Data: PubChem BioAssay AID1918998 (Molecular Pharmacology Branch, DTP, NCI, 2023)

System: 521955-158-R2-J5-PDC complex spheroid growth
Experiment: Anticancer human tumor 521955-158-R2-J5-PDC patient-derived pancreatic carcinoma cell line growth inhibition [AhR]
Conditions: for IC50: curve of first compound; for viability, T/C: stronger effect = lower value
From the text: Multicellular complex tumor spheroid response to aryl hydrocarbon receptor antagonists in combination with a variety of drugs and investigational agents in selected tumor cell lines
The current study was undertaken to assess response to aryl hydrocarbon receptor antagonists in combination with standard-of-care drugs and investigational agents in solid tumor complex spheroid models. Complex spheroids include a stromal component modeled by human endothelial cells (HUVEC) and fibroblasts modeled by human mesenchymal stem cells (MSCs). The concentration ranges selected for each drug and investigational agent were based upon clinically achievable concentrations if the clinical Cmax of the agent was known.
Compounds. The drugs and investigational agents: BAY 2416964 (NSC825713), GNF351 (NSC835774), CH-223191 (NSC835775), CPI-455 (NSC825282), aza-TdCyd (NSC777586), decitabine (NSC127716), belinostat (NSC758774), entinostat (NSC756642), pevonedistat (NSC761192), tazemetostat (NSC777109), talazoparib (NSC765396), olaparib (NSC753686), selinexor (NSC780203), nedisertib (M3814, NSC802822), bortezomib (NSC756655), venetoclax (NSC766270), doxorubicin (NSC123127), elimusertib (BAY189344, NSC800525), ceralasertib (AZD6738, NSC777638), TAK-243 (NSC785004), alisertib (NSC759677), etoposide (NSC141540), topotecan (NSC609699), eribulin (NSC707389), gemcitabine (NSC613327), carboplatin (NSC241240), cisplatin (NSC119875), and SN-38 (NSC673596) were obtained from the National Cancer Institute (NCI) Developmental Therapeutics Program Chemical Repository (32). The FDA-approved anticancer drug set is available from the Developmental Therapeutics Program at https://dtp.cancer.gov/organization/dscb/obtaining/available plates.htm. […] The stock solutions were prepared in dimethyl sulfoxide (DMSO, Sigma-Aldrich, St. Louis, MO, cat. D2650), except for the platinum compounds which were prepared in saline (Quality Biological, Gaithersburg, MD, cat. 114-055-101), at 800-fold the tested concentration and stored at -70 degrees C prior to their use. All drugs and investigational agents were tested over a range starting from a high concentration at or near the clinical Cmax and decreasing in half-log increments. If the clinical Cmax for an agent had not been determined, the highest concentration tested was 10 microM (Table 1).
Cell Culture. All cells were maintained in an incubator at 37 degrees C and 5% CO2 with 95% humidity. The PDC lines were cultured according to standard operating procedures established by the NCI PDMR (https://pdmr.cancer.gov). Briefly, all PDCs were thawed and cultured in Matrigel-coated flasks prepared with a working solution of 1X Ham's F-12 nutrient mix, without supplementation (Invitrogen, Waltham, MA, cat. 11765054), 100 U/mL penicillin-streptomycin (Invitrogen, cat. 15140122), and 2.5% Matrigel (Corning Inc., Corning, NY, cat. 354248) for the first three passages. All PDCs were cultured in complete DMEM/F-12 media containing advanced DMEM/F-12 (Invitrogen, cat. 12634028), 4.9% defined fetal bovine serum, heat inactivated (HyClone Laboratories Inc., Logan, UT, cat. SH30070.03HI), 389 ng/mL hydrocortisone (Sigma-Aldrich, cat. H4001), 9.7 ng/mL human EGF recombinant protein (Invitrogen, cat. PHG0313), 23.4 microg/mL adenine (Sigma-Aldrich, cat. A2786), 97.3 U/mL penicillin-streptomycin (Invitrogen, cat. 15140122), 1.9 mM L-glutamine (Invitrogen, cat. 25030081), and 9.7 microM Y-27632 dihydrochloride (Tocris Bioscience, Bristol, United Kingdom, cat. 1254). The PDCs were cultured in complete DMEM/F12 media without 10 microM Y-27632 dihydrochloride for at least two passages prior to the screen. The established cell lines NCI-H1341 and […] were cultured in DMEM/F-12, HEPES (Invitrogen, cat. 11330032), 5% defined fetal bovine serum (HyClone Laboratories Inc., cat. SH30070.03), ITS premix universal culture supplement [insulin (5 microg/mL), transferrin (5 microg/mL), and selenious acid (5 ng/mL)] […]
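Wherever viability, T/C is given: spheroids mix tumor cells with HUVEC endothelium and human MSC stroma; luminescence taken as viability surrogate after a week of drug exposure.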

CCc1c2c(nc3ccc(O)cc13)-c1cc3c(c(=O)n1C2)COC(=O)[C@]3(O)CC + CC(CO)NC(=O)c1cc(-c2ccc(Cl)cc2)nn(-c2cnn(C)c2)c1=O
IC50 (second compound 0.1 µM): 2.22 nM | IC50 (second compound 0.316 µM): < 0.949 nM | IC50 (second compound 1 µM): 1.21 nM | IC50 (second compound 3.16 µM): < 0.949 nM | IC50 (second compound 10 µM): < 0.949 nM | viability, T/C (second compound 0.1 µM, first compound 0.000949 µM): 57.4% | viability, T/C (second compound 0.1 µM, first compound 0.003 µM): 47.5% | viability, T/C (second compound 0.1 µM, first compound 0.00949 µM): 15.7% | viability, T/C (second compound 0.1 µM, first compound 0.03 µM): 9.8% | viability, T/C (second compound 0.1 µM, first compound 0.0949 µM): 8.28% | viability, T/C (second compound 0.1 µM, first compound 0.3 µM): 5.09% | viability, T/C (second compound 0.316 µM, first compound 0.000949 µM): 49.1% | viability, T/C (second compound 0.316 µM, first compound 0.003 µM): 36.5% | viability, T/C (second compound 0.316 µM, first compound 0.00949 µM): 13.5% | viability, T/C (second compound 0.316 µM, first compound 0.03 µM): 9.73% | viability, T/C (second compound 0.316 µM, first compound 0.0949 µM): 8.11% | viability, T/C (second compound 0.316 µM, first compound 0.3 µM): 5.79% | viability, T/C (second compound 1 µM, first compound 0.000949 µM): 55.3% | viability, T/C (second compound 1 µM, first compound 0.003 µM): 30% | viability, T/C (second compound 1 µM, first compound 0.00949 µM): 16.4% | viability, T/C (second compound 1 µM, first compound 0.03 µM): 7.85% | viability, T/C (second compound 1 µM, first compound 0.0949 µM): 9.01% | viability, T/C (second compound 1 µM, first compound 0.3 µM): 4.72% | viability, T/C (second compound 3.16 µM, first compound 0.000949 µM): 35.5% | viability, T/C (second compound 3.16 µM, first compound 0.003 µM): 29.3% | viability, T/C (second compound 3.16 µM, first compound 0.00949 µM): 16.7% | viability, T/C (second compound 3.16 µM, first compound 0.03 µM): 12.7% | viability, T/C (second compound 3.16 µM, first compound 0.0949 µM): 9.72% | viability, T/C (second compound 3.16 µM, first compound 0.3 µM): 9.82% | viability, T/C (second compound 10 µM, first compound 0.000949 µM): 27.3% | viability, T/C (second compound 10 µM, first compound 0.003 µM): 23.6% | viability, T/C (second compound 10 µM, first compound 0.00949 µM): 14.9% | viability, T/C (second compound 10 µM, first compound 0.03 µM): 8.31% | viability, T/C (second compound 10 µM, first compound 0.0949 µM): 7.42% | viability, T/C (second compound 10 µM, first compound 0.3 µM): 6.21%
